These results are taken from ChEMBL document CHEMBL1125586, “Novel thiophene-, pyrrole-, furan-, and benzenecarboxamidotetrazoles as potential antiallergy agents” (J Med Chem, 1991).

SMILES strings stand for the structures. pIC50: −log10 of the molar value. In brackets after ≈: the same amount, converted by molar mass.

The species named for data set [1] is Homo sapiens. The data set can be described thus: cells.
Description: Percent inhibition of histamine release from human basophils at a concentration of 33 uM.
Data set [2] can be described thus: physchem. To be noted: buffer, pH 7.4.
Description: Log P value was determined at pH 7.4 using correlation (HPLC) method.
Data set [3] is filed under the species Homo sapiens. The data set can be described thus: cells. The source holds these as a separate data set.
Description: Percent inhibition of histamine release from human basophils at a concentration of 10 uM.
The species entered for data set [4] is Homo sapiens. Put plainly: cells. The source holds these as a separate data set.
Description: Compound was tested for the concentration to inhibit 50% of anti-IgE-stimulated histamine release from human basophils.
Data set [5] in a line: physchem. To be noted: buffer, pH 7.4. This is another data set of the same source.
Description: Solubility was determined at pH 7.4

`COc1ccc2sc(C(=O)Nc3nnn[nH]3)c(OC(C)C)c2c1`: in data set [1], testing at 33 µM gave an inhibition of 97%. In addition, in data set [2], the chromatographic logD (as a rule, a lipophilicity value derived from retention on a column) was found to be 1.78. Besides, at 10 µM the inhibition in data set [3] was 95%. The negative-log IC50 (pIC50) (commonly the negative decadic logarithm of the IC50, by convention in mol/L) in data set [4] was 5.96. In data set [5], the solubility (commonly how much of the substance goes into solution per volume) was 1840 µg/mL (≈ 5.52 mM).
Taken in the same sequence, the figures for `COc1sc(C(=O)Nc2nn[nH]n2)c(OC(C)C)c1Br` were 95%, 1.35, 92%, 5.70 and 1900 µg/mL (≈ 5.25 mM).
As to `Cc1sc(C(=O)Nc2nn[nH]n2)c(SC(C)C)c1Br`, in data set [1], the inhibition (commonly the share of the control response that was lost under treatment) at 33 µM was found to be 90%. The inhibition at 10 µM in data set [3] amounted to 74%. This molecule also showed a pIC50 in data set [4] of 5.30.
Taken in the same sequence, the figures for `CCOc1c(C(=O)Nc2nn[nH]n2)sc(C)c1Br` were 100%, 77% and 5.30.
Turning to `CC(C)Oc1c(C(=O)Nc2nn[nH]n2)sc(C(C)C)c1Br`, the inhibition at 33 µM in data set [1] is less than 25%. For the same molecule, the inhibition at 10 µM in data set [3] was less than 25%.
For `CC(C)Oc1c(Br)c(Br)n(C)c1C(=O)Nc1nn[nH]n1`, at 33 µM the inhibition in data set [1] was 69%. Besides, the chromatographic logD in data set [2] stood at 2.52. The same molecule returned an inhibition at 10 µM in data set [3] of 37%. Moreover, the pIC50 in data set [4] is 4.60. Besides, the concentration in solution in data set [5] (solubility) was 1900 µg/mL (≈ 4.66 mM).
`Cc1sc(C(=O)Nc2nn[nH]n2)c(OC(C)C)c1Cl` gave an inhibition at 33 µM in data set [1] of 88%. Also, at 10 µM the inhibition in data set [3] was 55%. The pIC50 in data set [4] was 5.10.
`Cc1sc(C(=O)Nc2nn[nH]n2)c(OC(C)C)c1Br` had an inhibition at 33 µM in data set [1] of 97%. Moreover, the chromatographic logD in data set [2] came to 1.72. Also, in data set [3], the inhibition at 10 µM is 85%. The negative logarithm of the IC50 (pIC50) in data set [4] was 5.70. Besides, the concentration in solution in data set [5] (solubility) came to 3300 µg/mL (≈ 9.53 mM).
The molecule `Cc1sc(C(=O)Nc2nn[nH]n2)c(OCc2ccccc2)c1Br` gave an inhibition at 33 µM in data set [1] of 91%. In data set [3], at 10 µM the inhibition was 68%. The same molecule gave a pIC50 in data set [4] of 5.30.
In data set [1], `COc1ccc2c(c1)c(OC(C)C)c(C(=O)Nc1nn[nH]n1)n2-c1ccccc1` yielded an inhibition at 33 µM of 82%. In data set [2], the chromatographic logD was found to be 2.66. The same molecule registered an inhibition at 10 µM in data set [3] of 46%. For the same molecule, the solubility in data set [5] came out at 70 µg/mL (≈ 0.178 mM).
The molecule `COc1ccc2c(c1)c1oc(C(=O)Nc3nn[nH]n3)c(OC)c1n2-c1ccccc1` registered an inhibition at 33 µM in data set [1] of 91%. In addition, in data set [2], the chromatographic logD is 2.8. The molecule further showed an inhibition at 10 µM in data set [3] of 66%. Besides, in data set [4], the pIC50 was 5.07. This molecule also had a solubility in data set [5] of less than 1 µg/mL.
Molecule `COc1c(Br)cc(C(=O)Nc2nn[nH]n2)c(OC(C)C)c1Br` came in with an inhibition at 33 µM in data set [1] of 28%. In data set [3], this molecule yielded an inhibition at 10 µM of less than 25%.
In the case of `CC(C)Oc1c(Br)c(Br)n(Cc2ccccc2)c1C(=O)Nc1nn[nH]n1`, in data set [1], the inhibition at 33 µM is less than 25%. In data set [3], this molecule registered an inhibition at 10 µM of less than 25%.
With `CC(C)Oc1c(C(=O)Nc2nn[nH]n2)[nH]c(Br)c1Br`, the inhibition at 33 µM in data set [1] is less than 25%. This molecule also gave an inhibition at 10 µM in data set [3] of less than 25%.
Consider `CC(C)Oc1c(Br)c(Br)n(-c2ccccc2)c1C(=O)Nc1nn[nH]n1`, for which, in data set [1], the inhibition at 33 µM is less than 25%. Also, the inhibition at 10 µM in data set [3] was less than 25%.
On to `Cc1cc(OC(C)C)c(C(=O)Nc2nn[nH]n2)s1`, for which the inhibition at 33 µM in data set [1] is less than 25%. In addition, the inhibition at 10 µM in data set [3] is less than 25%.
The molecule `Cc1sc(C(=O)Nc2nn[nH]n2)c(OC(C)C)c1OC(C)C` registered an inhibition at 33 µM in data set [1] of less than 25%. In data set [3], this molecule had an inhibition at 10 µM of less than 25%.
With `COc1ccc(C(=O)Nc2nn[nH]n2)c(OC(C)C)c1[Si](C)(C)C`, the inhibition at 33 µM in data set [1] was less than 25%. This molecule also registered an inhibition at 10 µM in data set [3] of less than 25%.
`COc1ccc(C(=O)Nc2nn[nH]n2)c(OC(C)C)c1Br` gave an inhibition at 33 µM in data set [1] of 60%. The molecule further came in with an inhibition at 10 µM in data set [3] of less than 25%.
Taken in the same sequence, the figures for `CC(C)Oc1c(Br)csc1C(=O)Nc1nn[nH]n1` were 47% and 30%.
Taken in the same sequence, the figures for `CC(C)Oc1c(C(=O)Nc2nn[nH]n2)sc(-c2ccccc2)c1Br` were less than 25% and less than 25%.
In data set [1], `COc1ccc(C(=O)Nc2nn[nH]n2)c(OC(C)C)c1` displayed an inhibition at 33 µM of 41%. In data set [3], this molecule registered an inhibition at 10 µM of less than 25%.
Taken in the same sequence, the figures for `CC(C)Sc1c(C(=O)Nc2nn[nH]n2)oc(Br)c1Br` were less than 25% and less than 25%.
Turning to `COc1ccc(C(=O)Nc2nn[nH]n2)c(OC(C)C)c1I`, in data set [1], at 33 µM the inhibition was 73%. Besides, in data set [2], the chromatographic logD turned out to be 1.17. The same molecule registered an inhibition at 10 µM in data set [3] of 51%. Besides, in data set [4], the pIC50 was 5.00.
`Cc1sc(C(=O)Nc2nn[nH]n2)c(OC(C)C)c1C`: the inhibition at 33 µM in data set [1] was less than 25%. Further, the inhibition at 10 µM in data set [3] is less than 25%.
The molecule `Cc1sc(C(=O)Nc2nn[nH]n2)c(OC(C)C)c1C(C)C` displayed an inhibition at 33 µM in data set [1] of less than 25%. Further, the inhibition at 10 µM in data set [3] is less than 25%.
In data set [1], `COc1c(C(=O)Nc2nn[nH]n2)sc(C)c1Br` returned an inhibition at 33 µM of 53%. The molecule further yielded an inhibition at 10 µM in data set [3] of less than 25%.
As to `CCCc1c2oc(C(=O)O)cc(=O)c2cc2c(=O)cc(C(=O)O)n(CC)c12` [NEDOCROMIL], the inhibition at 33 µM in data set [1] was less than 25%. In addition, the inhibition at 10 µM in data set [3] was less than 25%.
